Measurements published in PMC3705364, “Biochemical and Electrophysiological Characterization of Two Sea Anemone Type 1 Potassium Toxins from a Geographically Distant Population of Bunodosoma caissarum” (Marine Drugs, 2013).
Entries after “also recorded” stand apart in the source; their conditions may differ. Where a SMILES comes first, the peptide text is derived from it. Bridges are numbered along the chain shown (N, C = ends).

What was measured:
[1] = molecular target: T1, Shaker IR (Drosophila melanogaster, UniProt P08510, DEL6-46); experiment: Current-voltage (I-V) experiments, voltage dependence and reversibility on Shaker IR; assay type: cell-based, insect
T1 construct: expressed in transfected cells; host or cells: Xenopus laevis oocytes injected with cRNA
Experimental: In order to elucidate whether BcsTx-1 and -2 block the current through a physical obstruction of the Shaker IR channel pore or act as gating modifiers, current-voltage (I-V) experiments were performed. The currents were inhibited at the test potentials from −90 to 100 mV, and the inhibition was not associated with a change of the shape of the I-V relationship. The control curve and the curve in the presence of BcsTx1 (500 nM) were characterized by a V1/2 values of 20.85 ± 0.69 mV and 22.62 ± 0.73 mV, respectively. Moreover, the control curve and the curve in the presence of BcsTx2 (50 nM) were characterized by a V1/2 values of 18.49 ± 1.49 mV and 23.88 ± 1.57 mV, respectively. […] To date, type 1 sea anemone toxins have been described to act solely through a KV channel pore-blocking mechanism.
Figure 8 Functional features of BcsTx1 and BcsTx2 on KV channels. (A, B) Dose-response curves of BcsTx1 and BcsTx2 on rKV1.1, rKV1.2, hKV1.3, rKV1.6 and Shaker IR channels. The curves were obtained by plotting the percentage blocked current as a function of increasing toxin concentrations. All data are presented as the mean ± standard error (n ≥ 3). (C, D) Current-voltage relationship for Shaker IR isoform in control condition and in the presence of BcsTx1 (500 nM) and BcsTx2 (50 nM). Current traces were evoked by 10 mV depolarization steps from a holding potential of −90 mV. Open circles indicates the V1/2 in control; closed circles indicate the addition of toxins. (E, F) Percentage of currents left after application of BcsTx1 (500 nM) and BcsTx2 (50 nM) on Shaker IR channel. […] (G, H) Representative experiment of the time course of Shaker IR current inhibition with BcsTx1 (500 nM) and BcsTx2 (3000 nM) and the reversibility hereof. Control (open square); washout (open circles). […] Plots shown are a representative of at least three individual experiments.
Stage V–VI of X. laevis oocytes were harvested by partial ovariectomy under anesthesia (3-aminobenzoic acid ethyl ester methanesulfonate salt, 0.5 g/L from Sigma-Aldrich Co., Saint Louis, MO, USA). The oocytes were defolliculated for 2 h by treatment with 2 mg/mL collagenase (Sigma-Aldrich Co., Saint Louis, MO, USA) in Ca^2+ free ND96 solution (in mM: 96 NaCl; 2 KCl; 1 MgCl2; 5 HEPES adjusted pH 7.4). […]
Two-electrode voltage-clamp recordings were performed at room temperature (18–22 °C) using a Geneclamp 500 amplifier (Molecular Devices, Sunnyvale, CA, USA) controlled by a pClamp data acquisition system (Axon Instruments, Union City, CA, USA). Whole-cell currents from oocytes were recorded from 1 to 3 days after injection. […]

[2] = molecular target: hKV1.3 (Homo sapiens, UniProt P22001); experiment: Two-electrode voltage-clamp, X. laevis oocytes expressing hKV1.3; assay type: cell-based; set-up: expressed in transfected cells; host or cells: Xenopus laevis oocytes injected with cRNA
Experimental: Stage V–VI of X. laevis oocytes were harvested by partial ovariectomy under anesthesia (3-aminobenzoic acid ethyl ester methanesulfonate salt, 0.5 g/L from Sigma-Aldrich Co., Saint Louis, MO, USA). The oocytes were defolliculated for 2 h by treatment with 2 mg/mL collagenase (Sigma-Aldrich Co., Saint Louis, MO, USA) in Ca^2+ free ND96 solution (in mM: 96 NaCl; 2 KCl; 1 MgCl2; 5 HEPES adjusted pH 7.4). For the expression of KV channels (KV1.1–KV1.6, KV2.1, KV3.1, KV4.2, KV4.3, hERG and the insect channel Shaker IR), the linearized plasmids were transcribed using the T7 or SP6 mMessage-mMachine transcription kit (Ambion, Austin, TX, USA). Oocytes were injected with 50 nL of cRNA at a concentration of 1 ng/nL using a microinjector (Drummond Scientific, Broomall, PA, USA). The oocytes were maintained in a ND96 solution (in mM: 96 NaCl, 2 KCl, 1.8 CaCl2, 2 MgCl2 and 5 HEPES; adjusted pH 7.4), supplemented with 50 µg/mL gentamicin sulfate.
Two-electrode voltage-clamp recordings were performed at room temperature (18–22 °C) using a Geneclamp 500 amplifier (Molecular Devices, Sunnyvale, CA, USA) controlled by a pClamp data acquisition system (Axon Instruments, Union City, CA, USA). Whole-cell currents from oocytes were recorded from 1 to 3 days after injection. Bath solution was the same ND96 solution described above. Voltage and current electrodes were filled with 3 M KCl. Resistances of both electrodes were kept between 0.8 and 1.0 ΩM. The elicited currents were filtered at 500 Hz using a four-pole lowpass Bessel filter. Leak subtraction was performed using a −P/4 protocol. KV1.1–KV1.6 and Shaker IR currents were evoked by 500 ms depolarizations to 0 mV, followed by a 500 ms pulse to −50 mV, from a holding potential of −90 mV. Current traces of hERG channels were elicited by applying a +40 mV prepulse for 2 s, followed by a step to −120 mV for 2 s. KV3.1, KV 4.2 and KV4.3 currents were elicited by 500 ms pulses to +20 mV from a holding potential of −90 mV. To assess the concentration-response relationships, data were fitted with the Hill equation: y = 100/[1 + (EC50/[toxin])h] (1) where y is the amplitude of the toxin-induced effect, EC50 is the toxin concentration at half maximal efficacy, [toxin] is the toxin concentration and h is the Hill coefficient. In order to investigate the current-voltage relationship, current traces were evoked by 10 mV depolarization steps from a holding potential of −90 mV. […]
Comparison of two sample means was made using a paired Student’s t test (p < 0.05). […] All data were analyzed using Clampfit 10.3 (Molecular Devices, Sunnyvale, CA, USA) and Origin 7.5 software (Origin Lab., Northampton, MA, USA).

T1 sequence (P08510 with tags, fused parts or gaps DEL6-46): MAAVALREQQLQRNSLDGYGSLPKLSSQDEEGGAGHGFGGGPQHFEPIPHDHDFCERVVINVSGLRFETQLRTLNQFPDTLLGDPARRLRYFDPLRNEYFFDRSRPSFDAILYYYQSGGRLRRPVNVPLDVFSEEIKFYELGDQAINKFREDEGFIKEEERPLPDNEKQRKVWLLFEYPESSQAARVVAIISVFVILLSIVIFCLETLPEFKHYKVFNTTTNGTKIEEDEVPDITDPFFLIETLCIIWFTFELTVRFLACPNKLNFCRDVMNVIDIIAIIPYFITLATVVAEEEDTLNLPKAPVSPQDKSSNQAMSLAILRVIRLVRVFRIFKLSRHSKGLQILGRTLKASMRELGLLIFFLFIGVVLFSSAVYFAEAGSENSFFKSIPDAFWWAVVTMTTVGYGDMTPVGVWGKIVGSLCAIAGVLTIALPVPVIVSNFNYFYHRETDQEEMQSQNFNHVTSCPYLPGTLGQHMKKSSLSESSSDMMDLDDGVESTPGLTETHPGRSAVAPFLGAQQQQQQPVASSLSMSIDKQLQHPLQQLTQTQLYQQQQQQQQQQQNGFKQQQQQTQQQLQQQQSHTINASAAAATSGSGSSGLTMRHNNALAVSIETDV
hKV1.3, sequence (P22001 whole entry): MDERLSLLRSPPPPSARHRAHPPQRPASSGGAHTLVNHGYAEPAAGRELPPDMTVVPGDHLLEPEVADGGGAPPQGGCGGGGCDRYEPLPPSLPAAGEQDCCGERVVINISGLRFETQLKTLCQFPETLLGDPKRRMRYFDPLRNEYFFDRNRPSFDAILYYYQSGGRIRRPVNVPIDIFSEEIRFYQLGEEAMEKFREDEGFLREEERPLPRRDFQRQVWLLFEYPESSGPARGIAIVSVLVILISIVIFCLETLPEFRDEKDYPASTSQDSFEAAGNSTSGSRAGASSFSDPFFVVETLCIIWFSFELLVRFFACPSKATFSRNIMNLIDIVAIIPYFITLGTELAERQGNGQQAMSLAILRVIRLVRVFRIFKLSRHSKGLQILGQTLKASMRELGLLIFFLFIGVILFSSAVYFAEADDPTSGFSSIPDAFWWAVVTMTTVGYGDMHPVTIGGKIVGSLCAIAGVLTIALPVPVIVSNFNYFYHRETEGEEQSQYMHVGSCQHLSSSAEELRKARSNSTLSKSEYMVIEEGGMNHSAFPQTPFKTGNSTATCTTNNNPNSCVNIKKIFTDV

CC(C)C[C@@H]1NC(=O)[C@H](CCCCN)NC(=O)[C@H](C)NC(=O)[C@H](Cc2c[nH]cn2)NC(=O)[C@H](CCC(N)=O)NC(=O)[C@@H]2CSSC[C@@H]3NC(=O)[C@H](CC(N)=O)NC(=O)[C@H](C)NC(=O)[C@H](CCCNC(=N)N)NC(=O)[C@H](Cc4ccc(O)cc4)NC(=O)[C@H](CCCCN)NC(=O)[C@H](CCC(N)=O)NC(=O)[C@H](CO)NC(=O)[C@H](CC(N)=O)NC(=O)[C@H](CCCCN)NC(=O)[C@H](CSSC[C@H](NC(=O)[C@H]([C@@H](C)O)NC(=O)[C@H](CCCCN)NC(=O)[C@H](C)NC3=O)C(=O)NCC(=O)N3CCC[C@H]3C(=O)N[C@H](C(=O)O)CSSC[C@H](NC(=O)[C@H](C)N)C(=O)N[C@@H](CCCCN)C(=O)N[C@@H](CC(=O)O)C(=O)NCC(=O)N[C@@H](Cc3ccccc3)C(=O)N3CCC[C@H]3C(=O)N[C@@H]([C@@H](C)O)C(=O)N[C@@H](C)C(=O)N[C@@H]([C@@H](C)O)C(=O)N2)NC(=O)[C@H](CC(N)=O)NC(=O)CNC(=O)[C@H](C(C)C)NC1=O [BcsTx2] (H-ACKDGFPTATCQHAKLVGNCKNSQKYRANCAKTCGPC-OH; disulfide 2-37, 11-30, 20-34; C-terminus assumed)
reversibility of blockage upon washout (in words) ([1]; Shaker IR, BcsTx1 500 nM, BcsTx2 3000 nM, washout): reversible, and a complete recovery was observed after washout; also recorded: binding was reversible upon washout
onset of blockage (in words) ([1]; Shaker IR, time course, BcsTx1 500 nM, BcsTx2 3000 nM): Blockage occurred rapidly
voltage dependence of blockage (in words) ([1]; Shaker IR, −10 mV to 50 mV, BcsTx1 500 nM, BcsTx2 50 nM): non-dependence of voltage for the blockage; also recorded: no difference was observed in the degree of BcsTx1- and BcsTx2-induced blockage
V1/2 of activation, Shaker IR ([1]; in presence of 50 nM toxin, control 18.49 ± 1.49 mV, Boltzmann fit): 23.88 ± 1.57 mV
inhibition at 3 µM ([2]; 3 µM, n ≥ 3, read-out: inhibition of hKV1.3 current): 100%
IC50 ([2]; TEVC, 18–22 °C, ND96 pH 7.4, 500 ms depolarizations to 0 mV from −90 mV, Hill fit, mean ± standard error, n ≥ 3): 13.1 ± 3.29 nM
